This is an account of results in PubChem BioAssay AID1996.

Each structure is given as a SMILES string. Converted amounts (≈) assume the structure as drawn. Some results are limits rather than exact numbers.

For the data set the following is noted: buffer; pH 7.4; 200.0 µM.
As usually defined, the kinetic solubility is the concentration staying in solution when a stock, usually in DMSO, is diluted into the medium. In turn, `CS(=O)(=O)Nc1ccc(S(=O)(=O)N2CCCCCC2)cc1` gave a kinetic solubility of 48.3 µg/mL (≈ 145 µM).

As for `CCOC(=O)c1c(NC(=O)c2cc(C)on2)c2cc([N+](=O)[O-])ccc2n1C`, the solubility (kinetic) was 1.6 µg/mL (≈ 4.3 µM).

For the molecule `CCN(CC)CCn1c(C)nc2ccccc21.Cl`, the kinetic solubility stood at 40.6 µg/mL.

Molecule `Fc1ccc2[nH]c3c(c2c1)CN(C(=S)NCc1ccccc1)CC3` yielded a kinetic solubility of 5 µg/mL (≈ 14.7 µM).

`Cc1ccsc1C(=O)OCC(=O)Nc1ccc(Cl)cn1` displayed a solubility (kinetic) of 14.7 µg/mL (≈ 47.3 µM).

As to `CC1C(=O)N2CCCc3cc(NC(=O)c4ccccc4F)cc1c32` (configuration not stated), the solubility (kinetic) was > 48.7 µg/mL.

Molecule `Cc1ccc(CC(=O)O/N=C(\N)c2ccncc2)cc1` gave a kinetic solubility of 18.1 µg/mL (≈ 67.2 µM).

`Cc1ccc(CNC(=O)C(C)C2Sc3ccccc3NC2=O)cc1` (configuration not stated) displayed a solubility (kinetic) of 1.6 µg/mL (≈ 4.7 µM).

As to `Nc1nc(NCCOCCO)nc(NCc2ccccc2)c1[N+](=O)[O-]`, the kinetic solubility is > 52.3 µg/mL.

As for `Cc1ccc(NS(=O)(=O)c2cc(N)ccc2Cl)c(C)c1`, the solubility (kinetic) is 43.5 µg/mL (≈ 140 µM).

The molecule `NC(=S)Nc1cc(Cl)cc(Cl)c1` returned a kinetic solubility of 33 µg/mL (≈ 149 µM).

As for `CN(C(=O)c1ccc2ccccc2c1)c1ccccn1`, the kinetic solubility is > 39.3 µg/mL.

Take `COC(=O)c1cccn(CC(=O)c2ccc(Cl)cc2)c1=O`: the kinetic solubility was > 45.9 µg/mL.

Consider `O=C1OC(CCl)CN1Cc1ccc([N+](=O)[O-])cc1` (configuration not stated), for which the kinetic solubility is > 40.6 µg/mL.

Consider `CCOC(=O)c1cc(NCc2cccs2)ccc1N1CCOCC1`, for which the solubility (kinetic) was 50.4 µg/mL (≈ 145 µM).

On to `NC(=O)c1ccccc1NC(=O)N1CCOCC1`, for which the solubility (kinetic) is 37.1 µg/mL (≈ 149 µM).

The molecule `CCOc1cc(N2CCOCC2)c(OCC)cc1NC(=O)c1ccc(OC)c(S(=O)(=O)N2CCOCC2)c1` gave a solubility (kinetic) of 45.2 µg/mL (≈ 82.2 µM).

Consider `O=S(=O)(NCCC1=CCCCC1)c1ccccc1Cl`, for which the solubility (kinetic) worked out at 22 µg/mL (≈ 73.4 µM).

For `O=C(Nc1ccc(Cl)cc1)OC1CN2CCC1CC2` (configuration not stated), the kinetic solubility was 40.5 µg/mL (≈ 144 µM).

`O=S(=O)(Nc1ccccn1)c1cc(Cl)ccc1Cl` showed a solubility (kinetic) of 9.2 µg/mL (≈ 30.3 µM).

In the case of `Cc1cc(C(=O)OC(C)C(=O)NC2CCCCC2)c(C)o1` (configuration not stated), the solubility (kinetic) came out at 15.7 µg/mL (≈ 53.5 µM).

With `Cc1cc(C(=O)N/N=C/c2cn(C)nc2C)c2ccccc2n1`, the solubility (kinetic) was > 46.1 µg/mL.

As for `c1ccc(Cc2nc3ccccc3[nH]2)cc1`, the solubility (kinetic) was > 31.2 µg/mL.

On to `Nc1ncc([N+](=O)[O-])c(Oc2ccccc2F)n1`, for which the solubility (kinetic) is > 37.5 µg/mL.

`Cc1ccn2cc(-c3cc4ccccc4oc3=O)nc2c1` displayed a solubility (kinetic) of 3.1 µg/mL (≈ 11.2 µM).

Consider `CCN(CC)c1cc(Cl)nc(N)n1`, for which the solubility (kinetic) amounted to 25.9 µg/mL (≈ 129 µM).

Regarding `O=C(CN1CCCCC1)Nc1ccccc1C(=O)NC1CC1`, the kinetic solubility is > 45.2 µg/mL.

For the molecule `O=[N+]([O-])c1cc(Cl)ccc1Sc1ccccn1`, the solubility (kinetic) came to 23.3 µg/mL (≈ 87.4 µM).

The molecule `Cc1ccccc1C(=O)Nc1nc(-c2cccnc2)cs1` yielded a solubility (kinetic) of 3.9 µg/mL (≈ 13.2 µM).

`CN1C(=O)/C(=C/C=C2\SCCN2C)OC1=S` gave a solubility (kinetic) of 4.4 µg/mL (≈ 17.2 µM).

With `COc1cccc(CN(C)C(=O)C23CC4CC(CC(C4)C2)C3)c1`, the solubility (kinetic) was determined as 19.4 µg/mL (≈ 61.9 µM).

`CCOc1ncccc1C(=O)OCC(=O)NC1CCCCC1` registered a kinetic solubility of 34.2 µg/mL (≈ 112 µM).

Consider `COC(=O)Cc1ccc(NC(=S)NCCO)cc1`, for which the solubility (kinetic) was 39.3 µg/mL (≈ 146 µM).

In turn, `O=S(=O)(c1ccc(F)c(F)c1)N1CCN(c2ncccn2)CC1` showed a solubility (kinetic) of 2.3 µg/mL (≈ 6.76 µM).

For `COc1ccc2c(c1OC)C(=O)N(c1cccc(NC(C)=O)c1)C2`, the solubility (kinetic) was 46.6 µg/mL (≈ 143 µM).

Regarding `CCOC(=O)C1CCCN(C(=O)c2cc3cc(OC)c(OC)cc3[nH]2)C1` (configuration not stated), the solubility (kinetic) stood at 17.5 µg/mL (≈ 48.6 µM).

On to `CCCNc1c(N)c(=O)c1=O`, for which the solubility (kinetic) was > 23.1 µg/mL.

`Cc1ccc(C(=O)OC(C)CN2CCOCC2)cc1.Cl` (configuration not stated) came in with a solubility (kinetic) of 38.9 µg/mL.

For the molecule `CCCc1cc(C(=O)Nc2cccc(Cl)c2C)no1`, the kinetic solubility is 16.4 µg/mL (≈ 58.8 µM).

As to `COc1ccccc1CNCC(=O)Nc1cc(S(=O)(=O)N2CCCCC2)ccc1C.O=C(O)C(=O)O`, the kinetic solubility is 34.3 µg/mL.

As for `O=C(/C=C/c1cccs1)NC1CCCC1`, the solubility (kinetic) was > 33.2 µg/mL.

`Cc1cc(C)c2cc(C(=O)N3CCC(Cc4ccccc4)CC3)[nH]c2c1`: the kinetic solubility was < 0.4 µg/mL.

The molecule `N#Cc1ccc(COC(=O)c2cnc(Cl)c(Cl)c2)cc1` gave a solubility (kinetic) of 1.4 µg/mL (≈ 4.56 µM).

Regarding `Cc1ccc(OCC(=O)N2CC(C)OC(C)C2)c([N+](=O)[O-])n1` (configuration not stated), the kinetic solubility is > 46.4 µg/mL.

`O=C(/C=C/c1cccs1)NCc1ccc2c(c1)OCO2`: the solubility (kinetic) is 6.3 µg/mL (≈ 21.9 µM).

`CCN(c1ccccc1)S(=O)(=O)c1cccc(C(=O)Nc2ccc(C)cn2)c1` showed a solubility (kinetic) of 9.7 µg/mL (≈ 24.5 µM).

In turn, `COCCNC(=O)c1ccc(CSc2nc3ccccc3s2)cc1` registered a kinetic solubility of 27.6 µg/mL (≈ 77 µM).

For the molecule `CCN(c1ccccc1)S(=O)(=O)c1c(C)noc1C`, the kinetic solubility is 31.4 µg/mL (≈ 112 µM).

The molecule `O=C(COC(=O)c1ccco1)Nc1cccc(S(=O)(=O)N2CCCCC2)c1` returned a solubility (kinetic) of 54.5 µg/mL (≈ 139 µM).

Regarding `COc1cccc(C(=O)NC(C)CCc2ccccc2)c1` (configuration not stated), the kinetic solubility worked out at 36 µg/mL (≈ 127 µM).

With `COc1ccc([N+](=O)[O-])cc1NC(=O)C1CCCNC1=O` (configuration not stated), the solubility (kinetic) was 19.1 µg/mL (≈ 65.1 µM).

Turning to `CCCOc1cccc(C(=O)NCCNC(=O)c2ccccn2)c1`, the kinetic solubility is > 49.1 µg/mL.
